Results reported in ChEMBL document CHEMBL1201862, “PubChem BioAssay data set” (2004).
Calls of active or inactive are those of the source.

What was measured:
Orexin receptor type 2 [1] = molecular target: T1, Orexin receptor type 2 (Homo sapiens, UniProt O43614); assay: Counterscreen assay for antagonists of the orexin 1 receptor (OX1R; HCRTR1): Fluorescence-based cell-based dose response assay for antagonists of the orexin 2 receptor (OX2R; HCRTR2), run by assay provider.; assay type: functional
T1 sequence (O43614 whole entry): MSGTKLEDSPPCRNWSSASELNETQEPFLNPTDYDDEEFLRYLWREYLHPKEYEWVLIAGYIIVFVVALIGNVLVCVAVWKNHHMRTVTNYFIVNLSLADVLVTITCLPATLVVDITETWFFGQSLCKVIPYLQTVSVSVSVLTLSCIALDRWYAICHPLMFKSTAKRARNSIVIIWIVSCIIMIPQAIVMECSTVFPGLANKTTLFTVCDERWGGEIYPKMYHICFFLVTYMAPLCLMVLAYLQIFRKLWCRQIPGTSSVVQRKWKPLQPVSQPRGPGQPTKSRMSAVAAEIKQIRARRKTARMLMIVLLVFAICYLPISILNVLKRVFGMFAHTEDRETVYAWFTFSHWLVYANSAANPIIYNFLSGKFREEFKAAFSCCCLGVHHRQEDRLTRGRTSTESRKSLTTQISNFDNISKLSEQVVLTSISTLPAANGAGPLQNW

BJ [2] = assay: cells; assay type: functional, cell-based; conditions: Homo sapiens
Vero = assay: host cell cytotoxicity of antiviral hits, dose response, cytotoxicity control for West Nile virus antiviral project, secondary assay (AID 1650); assay type: functional; conditions: Chlorocebus sabaeus
[3] = C. albicans growth with fluconazole, confirmation, fluorescence, retest (AID 2467); assay type: functional, cell-based
CHO-K1 = assay: (§1) Counterscreen for antagonists of the orexin 1 receptor (OX1R; HCRTR1): Homogeneous time resolved fluorescence (HTRF)-based cell-based dose response assay to identify antagonists of the parental CHO-K1 cell line. [Related pubchem assays (depositor defined):AID434989, AID435008, AID463079, AID485270, AID492963, AID492964, AID492965, AID493232, AID504699, AID504701]; assay type: functional; conditions: Cricetulus griseus
INS1 = assay: beta cell apoptosis inhibitors, cytokine rescue, dose response, luminescence, retest (AID 449756); assay type: functional, cell-based; conditions: Rattus norvegicus;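 note: cell death triggered by IL-1 beta plus TNF-alpha plus IFN-gamma mixture; protective hits raise ATP signal compared with cytokine alone wells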
[4] = NIH-3T3 fibroblast cytotoxicity, dose response, cytotoxicity control, cell-based, fluorescence, Alamar Blue, secondary assay (AID 2327); assay type: functional;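 note: NIH-3T3 mouse fibroblasts cultured with fluconazole at 8 µg/mL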
[5] = as §1, with “Fluorescence-based” for “Homogeneous time resolved fluorescence (HTRF)-based”, “cell-based high throughput” for “cell-based”, “CHO” for “CHO-K1”; assay type: functional
Orexin receptor type 2 [6] = molecular target: T1, Orexin receptor type 2; assay: Counterscreen assay for antagonists of the orexin 1 receptor (OX1R; HCRTR1): Homogeneous Time Resolved Fluorescence (HTRF)-based cell-based dose response assay for antagonists of the orexin 2 receptor (OX2R; HCRTR2), run by assay provider.; assay type: functional
cells [7] = assay type: functional, cell-based
BJ [8] = assay: cytotoxicity toward BJ-TERT-LT-ST fibroblasts, dose response, cell-based, RAS-independent, luminescence (AID 1935); assay type: functional; conditions: Homo sapiens;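 note: BJ fibroblasts immortalized with TERT plus LT and ST oncogenes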
[9] = molecular target: T2, Orexin/Hypocretin receptor type 1 (Homo sapiens, UniProt O43613); assay: (§2) Fluorescence-based cell-based high throughput dose response assay for antagonists of the orexin 1 receptor (OX1R; HCRTR1). [Related pubchem assays (depositor defined):AID434989, AID435008, AID463079, AID485270, AID492963, AID492964, AID492965, AID493232, AID504717, AID504718]; assay type: functional
T2 sequence (O43613 whole entry): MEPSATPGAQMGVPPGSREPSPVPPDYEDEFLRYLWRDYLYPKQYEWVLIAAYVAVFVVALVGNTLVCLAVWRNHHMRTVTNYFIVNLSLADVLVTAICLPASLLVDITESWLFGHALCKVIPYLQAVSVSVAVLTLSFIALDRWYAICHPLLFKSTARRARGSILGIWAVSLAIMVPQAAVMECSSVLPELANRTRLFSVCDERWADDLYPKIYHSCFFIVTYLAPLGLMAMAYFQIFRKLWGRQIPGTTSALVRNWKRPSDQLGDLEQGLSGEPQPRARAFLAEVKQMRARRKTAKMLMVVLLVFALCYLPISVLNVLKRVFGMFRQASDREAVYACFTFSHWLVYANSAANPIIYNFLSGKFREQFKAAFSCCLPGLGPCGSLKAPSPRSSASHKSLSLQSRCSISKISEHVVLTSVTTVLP

[10] = molecular target: T3, Zinc finger protein mex-5 (Caenorhabditis elegans, UniProt Q9XUB2); assay: MEX-5/TCR-2 RNA interaction inhibitors, dose response, biochemical, C. elegans, fluorescence polarization (AID 1960)
T3 sequence (Q9XUB2 whole entry): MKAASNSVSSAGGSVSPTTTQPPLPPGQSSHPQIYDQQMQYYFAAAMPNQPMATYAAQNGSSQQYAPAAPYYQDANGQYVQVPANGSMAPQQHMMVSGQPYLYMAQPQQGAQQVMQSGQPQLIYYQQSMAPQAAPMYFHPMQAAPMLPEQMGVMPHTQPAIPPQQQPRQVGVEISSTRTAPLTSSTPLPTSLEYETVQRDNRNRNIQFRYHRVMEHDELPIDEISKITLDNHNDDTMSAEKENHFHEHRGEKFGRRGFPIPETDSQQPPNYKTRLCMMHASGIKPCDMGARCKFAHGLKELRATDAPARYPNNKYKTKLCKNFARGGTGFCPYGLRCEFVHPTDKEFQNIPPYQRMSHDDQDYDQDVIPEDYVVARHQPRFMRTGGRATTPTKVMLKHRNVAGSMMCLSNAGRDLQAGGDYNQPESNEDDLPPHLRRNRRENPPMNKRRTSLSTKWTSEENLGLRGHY

BJ [11] = assay: cytotoxicity toward BJ-TERT fibroblasts, dose response, cell-based, RAS-independent, luminescence (AID 1933); assay type: functional; conditions: Homo sapiens
BJ [12] = assay: cytotoxicity toward Ras-transformed BJeLR fibroblasts, dose response, cell-based, alamar blue fluorescence, cherrypicked samples (AID 2631); assay type: functional; conditions: Homo sapiens;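 note: confirmatory dose-response assay in RAS-dependent BJ fibroblasts engineered with TERT, LT and ST, with cytotoxicity read by fluorescence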
[13] = cytotoxicity toward DRD oncogenic fibroblasts, dose response, cell-based, non-viral oncogenic, luminescence (AID 1934); assay type: functional; conditions: Homo sapiens
cells [14] = assay type: functional, cell-based; remark: listed apart in the source
[15] = molecular target: T4, RNA-binding protein pos-1 (Caenorhabditis elegans, UniProt G5EF15); assay: inhibitors of POS-1/mex-3 RNA binding, dose response, biochemical, fluorescence polarization (AID 1964);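 note: purified POS-1 fused to maltose binding protein made in E. coli; potency of compounds blocking POS-1 binding to fluorescent RNA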
T4 sequence (G5EF15 whole entry): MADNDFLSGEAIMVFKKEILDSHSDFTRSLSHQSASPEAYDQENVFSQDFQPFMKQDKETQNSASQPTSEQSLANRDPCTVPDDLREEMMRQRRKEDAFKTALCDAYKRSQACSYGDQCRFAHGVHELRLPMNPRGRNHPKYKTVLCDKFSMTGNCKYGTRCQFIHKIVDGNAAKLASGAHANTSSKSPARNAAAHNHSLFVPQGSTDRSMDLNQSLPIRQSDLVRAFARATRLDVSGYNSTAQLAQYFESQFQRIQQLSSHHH

[16] = molecular target: T2, Orexin/Hypocretin receptor type 1; assay: as §2, with “Homogeneous Time Resolved Fluorescence (HTRF)-based” for “Fluorescence-based”; assay type: functional
[17] = molecular target: Neuropeptide Y receptor type 1 (Homo sapiens, UniProt P25929); assay: NPY-Y1 receptor antagonist potency, dose response, cell-based (AID 1277); assay type: functional
[18] = molecular target: Neuropeptide Y receptor type 2 (Homo sapiens, UniProt P49146); assay: NPY-Y2 antagonist potency, selectivity check, dose response, counter-screen for NPY-Y1 antagonist project, cell-based (AID 1278); assay type: functional
[19] = cytotoxicity in KRAS-transformed pancreatic duct cells, primary screen, cell-based, fluorescence, HTS (AID 431); assay type: functional; conditions: Homo sapiens;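 note: cell line used: HPDE-C7K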
Estrogen receptor beta [20] = molecular target: T5, Estrogen receptor beta (Homo sapiens, UniProt Q92731); assay: ERβ–SRC-3 coactivator interaction inhibitors, confirmation, orthogonal assay, biochemical, ELISA, streptavidin-HRP readout (AID 1060)
[21] = cytotoxicity in HPDE-C7 cells, cell-based, fluorescence, HTS (AID 430); assay type: functional; conditions: Homo sapiens
Estrogen receptor beta [22] = molecular target: T5, Estrogen receptor beta
[23] = molecular target: T6, Calpain-2 catalytic subunit (Sus scrofa, UniProt P43367); assay: pig calpain II inhibitor potency, dose response, biochemical, fluorogenic peptide substrate (AID 1420); assay type: functional
T6 sequence (P43367 whole entry): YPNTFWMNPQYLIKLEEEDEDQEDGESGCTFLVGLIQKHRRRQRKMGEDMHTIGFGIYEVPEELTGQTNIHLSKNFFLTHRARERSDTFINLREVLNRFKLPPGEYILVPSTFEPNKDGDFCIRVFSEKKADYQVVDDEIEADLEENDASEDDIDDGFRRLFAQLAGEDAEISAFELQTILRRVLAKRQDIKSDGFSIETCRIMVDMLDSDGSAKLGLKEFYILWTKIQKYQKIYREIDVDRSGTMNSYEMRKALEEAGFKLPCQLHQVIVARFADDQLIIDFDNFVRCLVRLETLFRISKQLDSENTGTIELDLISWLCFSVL

Nonstructural protein 1 = Nonstructural protein 1 (Influenza A virus, UniProt Q194T2); assay type: functional, Influenza A virus (A/California/07/2009(H1N1))
[24] = molecular target: Voltage-dependent T-type calcium channel subunit alpha-1H (Homo sapiens, UniProt O95180); assay type: functional;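 note: channel activity triggered by adding a high calcium stimulation buffer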
[25] = cytotoxicity toward NIH3T3 fibroblasts, dose response, counter-screen, cell-based, ATP luminescence, mouse fibroblasts (AID 2010); assay type: functional;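 note: cells exposed to compound for about 90 hours before reading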
[26] = inhibitors of intracellular T. cruzi replication, confirmation, NIH3T3 host cells, beta-gal luminescence (AID 2044); assay type: functional, cell-based;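 note: intracellular parasites grown in NIH/3T3 mouse fibroblasts as host cells; luminescent beta-galactosidase reporter signal from transgenic T. cruzi replicating inside host cells; inhibitors lower the luminescence signal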
cells [27] = assay: cells
Cytochrome P450 3A4 = Cytochrome P450 3A4 (Homo sapiens, UniProt P08684);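 note: CYP3A4 tested as one member of a cytochrome P450 panel screen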
Ephrin type-A receptor 4 = Ephrin type-A receptor 4 (Mus musculus, UniProt Q03137); assay: inhibitors of EphA4 binding to KYL peptide, primary screen, biochemical, colorimetric, mouse EphA4 (AID 689); assay type: functional
[28] = molecular target: Sphingosine 1-phosphate receptor 2 (Homo sapiens, UniProt O95136); assay: Dose Response Cell Based Assay for Agonists of the S1P2 Receptor of Purchased Analogues. [Related pubchem assays: 729, 843, 854, 736 ]; assay type: functional
Sphingosine 1-phosphate receptor 2, sequence (O95136 whole entry): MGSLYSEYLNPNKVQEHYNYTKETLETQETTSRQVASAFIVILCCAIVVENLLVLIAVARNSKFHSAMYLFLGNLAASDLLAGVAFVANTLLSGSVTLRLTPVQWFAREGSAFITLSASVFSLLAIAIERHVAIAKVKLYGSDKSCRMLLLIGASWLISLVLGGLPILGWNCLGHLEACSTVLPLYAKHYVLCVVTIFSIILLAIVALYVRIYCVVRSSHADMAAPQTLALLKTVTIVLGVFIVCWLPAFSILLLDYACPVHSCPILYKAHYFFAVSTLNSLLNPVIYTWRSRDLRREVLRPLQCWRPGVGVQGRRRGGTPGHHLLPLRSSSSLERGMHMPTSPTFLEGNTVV

T5 sequence (Q92731 whole entry): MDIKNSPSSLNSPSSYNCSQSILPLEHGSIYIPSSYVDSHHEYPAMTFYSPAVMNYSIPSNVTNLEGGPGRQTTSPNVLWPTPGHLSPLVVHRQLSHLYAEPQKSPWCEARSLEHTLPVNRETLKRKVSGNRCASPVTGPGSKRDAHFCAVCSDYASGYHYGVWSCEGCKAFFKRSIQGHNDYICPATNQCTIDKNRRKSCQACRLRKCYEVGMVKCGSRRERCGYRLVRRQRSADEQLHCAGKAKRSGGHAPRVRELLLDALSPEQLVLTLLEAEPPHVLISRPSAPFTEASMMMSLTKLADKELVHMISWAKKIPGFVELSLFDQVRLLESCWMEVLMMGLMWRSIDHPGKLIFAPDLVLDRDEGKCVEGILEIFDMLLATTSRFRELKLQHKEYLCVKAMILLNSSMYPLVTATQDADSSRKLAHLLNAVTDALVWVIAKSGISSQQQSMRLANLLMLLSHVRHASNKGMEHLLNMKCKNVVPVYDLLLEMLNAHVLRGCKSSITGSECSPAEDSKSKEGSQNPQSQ
Neuropeptide Y receptor type 1, sequence (P25929 whole entry): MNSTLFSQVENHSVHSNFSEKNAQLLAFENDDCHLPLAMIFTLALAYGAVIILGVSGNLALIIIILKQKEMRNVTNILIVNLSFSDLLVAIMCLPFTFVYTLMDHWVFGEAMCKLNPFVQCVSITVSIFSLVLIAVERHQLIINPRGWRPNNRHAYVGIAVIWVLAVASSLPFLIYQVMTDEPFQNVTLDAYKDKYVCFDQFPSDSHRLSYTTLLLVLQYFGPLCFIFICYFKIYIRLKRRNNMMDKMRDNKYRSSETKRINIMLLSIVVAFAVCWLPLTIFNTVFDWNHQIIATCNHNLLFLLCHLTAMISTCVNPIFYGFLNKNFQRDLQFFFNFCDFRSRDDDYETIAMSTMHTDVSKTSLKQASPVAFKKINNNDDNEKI
Cytochrome P450 3A4, sequence (P08684 whole entry): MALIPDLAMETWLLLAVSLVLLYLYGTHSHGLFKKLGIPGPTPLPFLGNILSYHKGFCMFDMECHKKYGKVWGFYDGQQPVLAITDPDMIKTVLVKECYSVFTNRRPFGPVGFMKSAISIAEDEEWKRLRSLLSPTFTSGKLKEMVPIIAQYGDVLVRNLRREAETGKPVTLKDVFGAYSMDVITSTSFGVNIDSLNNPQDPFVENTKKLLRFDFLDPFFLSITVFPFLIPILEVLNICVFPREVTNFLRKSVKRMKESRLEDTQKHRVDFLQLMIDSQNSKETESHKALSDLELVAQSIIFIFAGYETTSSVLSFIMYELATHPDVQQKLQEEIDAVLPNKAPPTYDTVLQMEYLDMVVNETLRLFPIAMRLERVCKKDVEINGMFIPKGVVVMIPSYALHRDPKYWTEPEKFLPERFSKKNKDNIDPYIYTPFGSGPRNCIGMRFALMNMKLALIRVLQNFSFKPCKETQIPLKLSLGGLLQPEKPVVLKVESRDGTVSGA
Nonstructural protein 1, sequence (Q194T2 whole entry): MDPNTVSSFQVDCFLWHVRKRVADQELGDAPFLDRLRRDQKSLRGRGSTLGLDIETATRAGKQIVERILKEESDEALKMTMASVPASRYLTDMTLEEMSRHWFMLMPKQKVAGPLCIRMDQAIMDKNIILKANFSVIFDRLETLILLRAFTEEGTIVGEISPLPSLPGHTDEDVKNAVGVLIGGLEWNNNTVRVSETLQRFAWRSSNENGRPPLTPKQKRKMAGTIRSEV
Ephrin type-A receptor 4, sequence (Q03137 whole entry): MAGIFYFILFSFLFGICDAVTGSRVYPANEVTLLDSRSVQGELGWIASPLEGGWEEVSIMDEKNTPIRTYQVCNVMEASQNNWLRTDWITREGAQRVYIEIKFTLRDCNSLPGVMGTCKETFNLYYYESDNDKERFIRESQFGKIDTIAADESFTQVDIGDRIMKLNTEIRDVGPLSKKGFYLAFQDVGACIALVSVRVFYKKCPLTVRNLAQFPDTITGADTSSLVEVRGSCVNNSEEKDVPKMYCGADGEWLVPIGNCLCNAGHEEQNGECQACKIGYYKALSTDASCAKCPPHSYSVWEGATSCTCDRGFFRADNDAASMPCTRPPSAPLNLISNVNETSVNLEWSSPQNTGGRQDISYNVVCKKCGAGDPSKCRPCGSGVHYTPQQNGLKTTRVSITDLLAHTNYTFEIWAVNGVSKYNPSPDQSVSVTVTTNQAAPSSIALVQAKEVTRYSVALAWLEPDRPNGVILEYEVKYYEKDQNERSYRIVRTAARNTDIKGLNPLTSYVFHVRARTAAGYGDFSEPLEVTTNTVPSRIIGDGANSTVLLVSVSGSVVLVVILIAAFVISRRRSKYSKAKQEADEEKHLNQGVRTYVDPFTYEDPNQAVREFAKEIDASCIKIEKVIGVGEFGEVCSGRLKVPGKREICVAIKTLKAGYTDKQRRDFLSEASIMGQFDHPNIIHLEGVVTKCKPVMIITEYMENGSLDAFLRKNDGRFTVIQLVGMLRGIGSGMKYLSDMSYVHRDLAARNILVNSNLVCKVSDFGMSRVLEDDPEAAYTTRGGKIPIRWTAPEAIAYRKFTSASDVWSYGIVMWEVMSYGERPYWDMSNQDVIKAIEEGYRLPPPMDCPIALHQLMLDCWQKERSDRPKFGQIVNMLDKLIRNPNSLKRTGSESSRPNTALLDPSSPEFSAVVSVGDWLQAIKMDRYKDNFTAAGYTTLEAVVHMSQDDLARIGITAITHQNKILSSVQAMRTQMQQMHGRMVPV
Neuropeptide Y receptor type 2, sequence (P49146 whole entry): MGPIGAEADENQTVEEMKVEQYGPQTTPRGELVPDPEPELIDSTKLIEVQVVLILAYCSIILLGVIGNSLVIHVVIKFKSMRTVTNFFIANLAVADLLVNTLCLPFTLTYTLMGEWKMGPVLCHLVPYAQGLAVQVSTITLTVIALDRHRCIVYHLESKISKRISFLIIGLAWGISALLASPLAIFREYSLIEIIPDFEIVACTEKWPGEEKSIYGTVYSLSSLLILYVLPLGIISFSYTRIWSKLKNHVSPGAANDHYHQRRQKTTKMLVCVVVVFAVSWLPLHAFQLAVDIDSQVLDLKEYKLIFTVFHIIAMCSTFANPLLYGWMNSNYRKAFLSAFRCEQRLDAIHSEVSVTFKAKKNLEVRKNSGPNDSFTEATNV

## CCN(CC)c1ccc(/C=N/NC(=O)c2ccco2)c(O)c1
Orexin receptor type 2 [1]
  IC50: > 88.8 µM (inactive)
BJ [2]
  EC50: 3.34 µM (active)
Vero
  CC50: 5.13 µM (active)
[3]
  EC50: 0.787 µM (active)
CHO-K1
  IC50: > 66.3 µM (inactive)
INS1
  AC50: 0.638 µM (active)
[4]
  EC50: 2.76 µM (inconclusive)
[5]
  IC50: > 49.8 µM (inactive)
Orexin receptor type 2 [6]
  IC50: > 50 µM (inactive)
Cells [7]
  EC50: 9.18 µM (active)
BJ [8]
  EC50: 2.66 µM (active)
[9]
  IC50: 4.03 µM (active)
[10]
  EC50: > 300 µM (not active)
BJ [11]
  EC50: 2.7 µM (inconclusive)
BJ [12]
  EC50: 0.966 µM (active)
[13]
  EC50: 2.58 µM (active)
Cells [14]
  EC50: 10.3 µM (active)
[15]
  EC50: > 300 µM (not active)
[16]
  IC50: 2.83 µM (active)

## Oc1ccc(-c2n[nH]cc2-c2nc3ccccc3s2)c(O)c1
[17]
  IC50: > 35 µM (not active)
[18]
  IC50: > 35 µM (not active)

## N#CC1=C(SCC(=O)Nc2cccc3cccnc23)NC(=O)C(C#N)C12CCCCC2 (stereo not given)
[19]
  EC50: > 20 µM (not active)
Estrogen receptor beta [20]
  IC50: > 50 µM (not active)
[21]
  EC50: > 20 µM (not active)
Estrogen receptor beta [22]
  IC50: > 50 µM (not active)

## CCN1/C(=C/c2ccc3cccc(C)c3[n+]2CC)Sc2ccccc21
BJ [2]
  EC50: 1.19 µM (active)
[23]
  IC50: > 50 µM (not active)
[3]
  EC50: < 0.03 µM (active)
Nonstructural protein 1
  IC50: > 100 µM (active)
[24]
  EC50: 1.77 µM (active)
[4]
  EC50: 18.6 µM (inconclusive)
[25]
  EC50: 5.26 µM (active)
[26]
  EC50: < 0.1 µM (active)
BJ [8]
  EC50: 1.17 µM (inconclusive)
Cells [27]
  EC50: 0.031 µM (active)
BJ [11]
  EC50: 0.37 µM (inconclusive)
Cytochrome P450 3A4
  AC50: 8.91 µM (inconclusive)
Ephrin type-A receptor 4
  IC50: 44.1 µM (active)
[13]
  EC50: 13.6 µM (inconclusive)

## Cc1cc(C(=O)CSc2nnnn2C(C)(C)C)c(C)n1Cc1ccccc1
[28]
  EC50: > 30 µM (not active)
